In patent publication US12583841B2, “Tetrahydropyrrolocyclic compound and application thereof” (Breakthrough Pharmaceuticals Inc., priority 2021, dated 2026):

Experiments:
OX1R = biological target: T1, OX1R (Homo sapiens, UniProt O43613); assay: FLIPR intracellular calcium antagonism test, HEK293-OX1R cells; assay type: cell-based; conditions: Orexin A at EC70, read-out: hOXIR IC50
T1 construct: expressed in transfected cells
T1 sequence (O43613 1-425): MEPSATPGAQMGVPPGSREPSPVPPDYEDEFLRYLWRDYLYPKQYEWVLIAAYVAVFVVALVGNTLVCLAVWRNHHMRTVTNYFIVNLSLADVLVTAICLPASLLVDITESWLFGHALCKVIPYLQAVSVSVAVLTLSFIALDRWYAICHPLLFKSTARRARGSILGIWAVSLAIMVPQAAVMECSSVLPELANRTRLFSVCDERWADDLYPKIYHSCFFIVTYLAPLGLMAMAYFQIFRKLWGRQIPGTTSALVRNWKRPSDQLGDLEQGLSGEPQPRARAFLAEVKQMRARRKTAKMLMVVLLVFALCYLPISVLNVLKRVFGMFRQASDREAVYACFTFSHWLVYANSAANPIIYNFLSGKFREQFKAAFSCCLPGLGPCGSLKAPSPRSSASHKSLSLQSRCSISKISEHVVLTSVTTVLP
Protocol: (§1) The change of intracellular calcium signal was detected by FLIPR, and the antagonism of the compounds on OX1R and OX2R receptors was evaluated by using IC50 value of the compounds as an index.
(§2) • Cell lines: Transfected HEK293-OX1R and HEK293-OX2R stable cell lines • HEK293-OX1R cell culture medium (DMEM, Invitrogen #11960-044, 10% serum Gibco #10099141, L-Glutamine 1×, Gibco #25030, sodium pyruvate 1×, Gibco #11360, Geneticin 300 μg/mL, Gibco #10131) • HEK293-OX2R cell culture medium (DMEM, Invitrogen #11960-044, 10% serum Gibco #10099141, L-Glutamine 1×, Gibco #25030, sodium pyruvate 1×, Gibco #11360, Geneticin 300 μg/mL, Gibco #10131, Blasticin 2 μg/mL, Invitrogen #R21001)
(§3) Experimental Steps and Methods: • a) Cell seeding (HEK293-OX1R and HEK293-OX2R cells) • 1) preheating the culture medium, trypsin and DPBS under water bath at 37° C.; pipetting and removing the medium of cell culture and washing same with 10 mL of DPBS; • 2) adding the preheated trypsin to a culture flask, rotating the culture flask so that the trypsin evenly covered the culture flask, and putting the culture flask in a 37° C., 5% CO2 incubator for digestion for 1-2 min; • 3) suspending the cells with 10-15 mL of medium for each T150 and centrifuging at 800 rpm for 5 min; resuspending the cells with 10 mL of medium, pipetting 1 mL of the cell suspension and counting with Vi-cell; • 4) diluting OX1R cells with medium to 5×10^5 cells/mL, and diluting OX2R cells with medium to 4×10^5 cells/mL, and adding the diluted cells to 384 plate (Greiner.781946) with a multi-channel pipette (50 μL/well, 25000 cells/well for OX1R cells, 20000 cells/well for OX2R cells); placing the cell plate in a 37° C., 5% CO2 incubator overnight. • b) Compound loading: • 1) diluting the compound to 20 mM with DMSO, 3-fold dilution, 8 gradients, duplicate wells, and adding same to a compound plate with an Echo liquid handler; then adding 20 μL of buffer to maintain the final concentration of DMSO of 0.1%. • c) FLIPR experiment: • 1) washing off the cell culture medium in the 384 plate with a vacuum pump, adding […] Direct fluorescent dye, incubating in 37° C., 5% CO2 incubator for 1 h, and balancing at room temperature for another 10 min. • 2) EC50 test: manually diluting Orexin A on ice, 3-fold dilution, 8 gradients, duplicate wells; preparing a DMSO plate and keep the DMSO concentration to be 0.5%; putting the cell plate, OrexinA plate, and DMSO plate in FLIPR respectively, and reading the fluorescence value. • 3) calculating the EC70 value based on the EC50 value of Orexin A; preparing a 5×EC70 solution, adding same to 384 compound plate with a multi-channel pipette, and storing on ice; • 4) putting the compound plate, 5×EC70 plate, cell plate, and FLIPR tip in sequence in FLIPR, running the program, and reading the fluorescence value. • d) Data analyzing: using Prism5.0 to analyze the data, and calculating the IC50 value of the compound.

OX2R = biological target: T2, OX2R (Homo sapiens, UniProt O43614); assay: FLIPR intracellular calcium antagonism test, HEK293-OX2R cells; assay type: cell-based; conditions: Orexin A at EC70, read-out: hOX2R IC50
T2 construct: expressed in transfected cells
T2 sequence (O43614 1-444): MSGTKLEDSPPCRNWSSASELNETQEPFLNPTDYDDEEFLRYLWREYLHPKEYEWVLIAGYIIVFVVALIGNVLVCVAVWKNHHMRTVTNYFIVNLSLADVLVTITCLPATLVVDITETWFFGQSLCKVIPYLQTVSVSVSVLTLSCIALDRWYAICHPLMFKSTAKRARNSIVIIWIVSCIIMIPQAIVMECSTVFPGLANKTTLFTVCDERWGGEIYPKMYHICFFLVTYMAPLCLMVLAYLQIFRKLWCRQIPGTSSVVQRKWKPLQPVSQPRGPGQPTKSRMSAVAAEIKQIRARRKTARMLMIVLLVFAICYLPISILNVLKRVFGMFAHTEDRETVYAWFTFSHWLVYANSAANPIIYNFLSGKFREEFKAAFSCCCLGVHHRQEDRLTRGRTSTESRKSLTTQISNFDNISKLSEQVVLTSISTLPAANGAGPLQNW
Protocol: as §1, §2, §3

## COc1ccc2nc([C@@H]3[C@H]4C[C@H]4CN3C(=O)c3ccccc3-n3nccn3)[nH]c2c1 [Compound 1]
OX1R
  IC50: > 10000 nM
OX2R
  IC50: 25 nM

## COc1ccc2nc([C@@H]3C[C@H]4C[C@H]4N3C(=O)c3ccccc3-n3nccn3)[nH]c2c1 [Compound 2]
OX1R
  IC50: > 10000 nM
OX2R
  IC50: 72 nM

## COc1ccc(-n2nccn2)c(C(=O)N2C[C@@H]3C[C@@H]3[C@H]2c2nc3ccc(OC)cc3[nH]2)c1 [Compound 4]
OX1R
  IC50: 462 nM
OX2R
  IC50: 64 nM

## COc1ccc2nc([C@@H]3[C@H]4C[C@H]4CN3C(=O)c3cc(C)ccc3-n3nccn3)[nH]c2c1 [Compound 5]
OX1R
  IC50: 337 nM
OX2R
  IC50: 96 nM

## COc1ccc2nc([C@@H]3[C@H]4C[C@H]4CN3C(=O)c3c(F)cccc3-n3nccn3)[nH]c2c1 [Compound 6]
OX1R
  IC50: 1420 nM
OX2R
  IC50: 299 nM

## COc1ccc2nc([C@@H]3C[C@H]4C[C@H]4N3C(=O)c3cc(C)ccc3-n3nccn3)[nH]c2c1 [Compound 7]
OX1R
  IC50: 877 nM
OX2R
  IC50: 24 nM

## COc1ccc2nc([C@@H]3C[C@H]4C[C@H]4N3C(=O)c3ccc(F)cc3-n3nccn3)[nH]c2c1 [Compound 9]
OX1R
  IC50: 3170 nM
OX2R
  IC50: 42 nM

## COc1ccc2[nH]c([C@@H]3C[C@H]4C[C@H]4N3C(=O)c3ccc(C)cc3-n3nccn3)nc2c1 [Compound 10]
OX1R
  IC50: 710 nM
OX2R
  IC50: 17 nM

## COc1ccc2[nH]c([C@@H]3C[C@H]4C[C@H]4N3C(=O)c3cc(F)ccc3-n3nccn3)nc2c1 [Compound 11]
OX1R
  IC50: 3600 nM
OX2R
  IC50: 33 nM

## COc1ccc2[nH]c([C@@H]3C[C@H]4C[C@H]4N3C(=O)c3c(F)cccc3-n3nccn3)nc2c1 [Compound 12]
OX1R
  IC50: 1280 nM
OX2R
  IC50: 81 nM

## COc1ccc2[nH]c([C@@H]3C[C@H]4C[C@H]4N3C(=O)c3cc(C)ccc3-c3ncccn3)nc2c1 [Compound 13]
OX1R
  IC50: 2440 nM
OX2R
  IC50: 60 nM

## COc1ccc2[nH]c([C@@H]3C[C@H]4C[C@H]4N3C(=O)c3cc(Cl)ccc3-n3nccn3)nc2c1 [Compound 14]
OX1R
  IC50: 1040 nM
OX2R
  IC50: 30 nM
